We go through two compounds from US6153592A, “Enhancing the bioavailability of proteolytically labile therapeutic agents” (Port Systems, LLC, priority 1994, dated 2000).

The structures appear in SMILES notation.

The test system of data set [1] is intestinal aminopeptidases. In words: Protection against degradation by aminopeptidase in vivo: YdAGFdL bioavailability after ileal dosing. More on the design: species or system rats. How it is done: The pentapeptide enkephalin analogue D-AJa-D-Leu-enkephalin (YdAGFdL) (1.0 mg) was directly ileally dosed to chronically ileally fistulated rats. Radiolabeled YdAGFdL (1.12 microgram) was dosed with each of four protecting agents: (1) decanted soy flour, <1K MW; (2) decanted and ultrafitered soy flour, 1K-30K MW; (3) pepsin-treated (FMC ACTI-MOD) soy flour, <30K MW; (4) the potent aminopeptidase inhibitor amastatin (positive control). Blood was collected from a jugular vein cannula at various times post-dosing, and intact YdAGFdL was quantified by a radiometric thin layer chromatography (TLC) method utilizing reverse phase KC-18 TLC plates (Whatman Co.). The TLC plates were developed with 30:701 -propanol/0.1 M phosphate buffer (pH 4.1).

The conditions of data set [2]: in vivo, cited from earlier work.

Take `CC(C)C[C@@H](N)[C@H](O)C(=O)N[C@H](C(=O)N[C@H](C(=O)N[C@@H](CC(=O)O)C(=O)O)C(C)C)C(C)C` [Amastatin]: in data set [1] (protecting agent 1 mg, ileally fistulated rats), the “% YdAGFdL Bioavailability” value worked out at 8.76 ± 4.47%. The “protection against degradation of YdAGFdL by intestinal aminopeptidases (in words)” value in data set [1] (rats) is given as “effective”.

Consider `CCNC(=O)[C@@H]1CCCN1C(=O)[C@H](CCCNC(=N)N)NC(=O)[C@H](CC(C)C)NC(=O)[C@@H](CC(C)C)NC(=O)[C@H](Cc1ccc(O)cc1)NC(=O)[C@H](CO)NC(=O)[C@H](Cc1c[nH]c2ccccc12)NC(=O)[C@H](Cc1c[nH]cn1)NC(=O)[C@@H]1CCC(=O)N1` [leuprolide], for which, in data set [2] (po), the “bioavailability following oral administration” value is reported as 0.05%. In addition, the “bioavailability following vaginal administration” value in data set [2] is on record as 38%.
